Experimental findings from ChEMBL document CHEMBL3217510, “Rhodanine carboxylic acids as novel inhibitors of histone acetyltransferases” (Medchemcomm, 2012) are described below.

Where only a bound is given, the exact number is not on record here.

In assay [1] the target is T1, Histone acetyltransferase KAT2B (Homo sapiens, UniProt Q92831). The assay is described as follows: Inhibition of human recombinant N-terminal His-tagged PCAF histone acetyltransferase catalytic domain expressed in Escherichia coli BL21 D3 using biotinylated histone H3 as substrate at 50 uM after 10 mins by TR-FRET analysis relative to control. A general note: TR-FRET usually uses a lanthanide donor and a delayed reading to cut background.
Target sequence in this assay (Q92831 whole entry, looked up, the tested form may be a part): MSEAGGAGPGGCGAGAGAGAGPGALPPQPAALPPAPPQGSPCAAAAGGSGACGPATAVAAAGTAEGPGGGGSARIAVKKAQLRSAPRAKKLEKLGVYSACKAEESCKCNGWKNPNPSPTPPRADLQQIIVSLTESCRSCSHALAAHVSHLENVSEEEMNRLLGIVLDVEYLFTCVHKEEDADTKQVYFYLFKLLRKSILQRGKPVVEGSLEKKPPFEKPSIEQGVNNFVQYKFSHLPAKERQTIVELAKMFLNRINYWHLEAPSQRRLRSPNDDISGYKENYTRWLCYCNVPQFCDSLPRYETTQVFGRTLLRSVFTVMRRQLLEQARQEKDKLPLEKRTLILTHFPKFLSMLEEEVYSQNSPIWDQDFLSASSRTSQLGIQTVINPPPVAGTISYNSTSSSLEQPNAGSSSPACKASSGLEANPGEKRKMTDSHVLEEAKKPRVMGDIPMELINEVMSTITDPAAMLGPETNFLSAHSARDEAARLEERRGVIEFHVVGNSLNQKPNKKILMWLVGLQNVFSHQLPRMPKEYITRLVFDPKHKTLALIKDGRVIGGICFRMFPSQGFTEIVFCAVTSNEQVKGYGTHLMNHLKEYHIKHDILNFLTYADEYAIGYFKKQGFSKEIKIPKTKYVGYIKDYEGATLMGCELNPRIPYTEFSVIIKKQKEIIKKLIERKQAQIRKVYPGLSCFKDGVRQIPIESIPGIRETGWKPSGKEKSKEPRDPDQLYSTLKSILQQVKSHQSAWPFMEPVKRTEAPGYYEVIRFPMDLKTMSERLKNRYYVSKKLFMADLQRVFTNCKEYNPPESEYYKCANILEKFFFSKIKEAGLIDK

The target of assay [2] is T2, Histone acetyltransferase KAT2A (Homo sapiens, UniProt Q92830). Briefly: Inhibition of KAT2A (362 to 837) (unknown origin) using biotinylated histone H3 as substrate after 10 mins by TR-FRET analysis relative to control.
Target sequence in this assay (Q92830 whole entry): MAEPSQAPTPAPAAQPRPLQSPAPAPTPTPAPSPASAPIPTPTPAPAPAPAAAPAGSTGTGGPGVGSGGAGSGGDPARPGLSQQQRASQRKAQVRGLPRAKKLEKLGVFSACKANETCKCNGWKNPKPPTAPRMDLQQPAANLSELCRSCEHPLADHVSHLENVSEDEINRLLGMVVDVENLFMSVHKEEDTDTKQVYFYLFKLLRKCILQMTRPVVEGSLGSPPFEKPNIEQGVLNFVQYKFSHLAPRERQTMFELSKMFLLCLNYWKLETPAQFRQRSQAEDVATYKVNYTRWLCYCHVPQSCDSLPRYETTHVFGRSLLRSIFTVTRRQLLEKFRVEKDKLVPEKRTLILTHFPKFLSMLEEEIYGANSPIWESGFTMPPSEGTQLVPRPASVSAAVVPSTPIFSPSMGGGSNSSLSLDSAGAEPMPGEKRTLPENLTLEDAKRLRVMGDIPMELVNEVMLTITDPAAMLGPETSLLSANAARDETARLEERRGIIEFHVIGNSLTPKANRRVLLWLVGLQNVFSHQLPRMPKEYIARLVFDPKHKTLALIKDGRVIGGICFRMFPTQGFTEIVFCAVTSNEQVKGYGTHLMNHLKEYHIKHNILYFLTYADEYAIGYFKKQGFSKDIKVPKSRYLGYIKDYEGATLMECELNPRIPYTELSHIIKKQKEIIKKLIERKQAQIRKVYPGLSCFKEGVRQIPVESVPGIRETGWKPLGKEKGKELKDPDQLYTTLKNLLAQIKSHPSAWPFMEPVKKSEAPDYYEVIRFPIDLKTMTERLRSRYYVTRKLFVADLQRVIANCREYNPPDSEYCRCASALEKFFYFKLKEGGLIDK
The target in assay [3] is T3, CREB-binding protein (Homo sapiens, UniProt Q92793). Briefly: Inhibition of KAT3A (1319 to 1710) (unknown origin) using biotinylated histone H3 as substrate after 10 mins by TR-FRET analysis relative to control.
Target sequence in this assay (Q92793 whole entry, the tested form may be a part): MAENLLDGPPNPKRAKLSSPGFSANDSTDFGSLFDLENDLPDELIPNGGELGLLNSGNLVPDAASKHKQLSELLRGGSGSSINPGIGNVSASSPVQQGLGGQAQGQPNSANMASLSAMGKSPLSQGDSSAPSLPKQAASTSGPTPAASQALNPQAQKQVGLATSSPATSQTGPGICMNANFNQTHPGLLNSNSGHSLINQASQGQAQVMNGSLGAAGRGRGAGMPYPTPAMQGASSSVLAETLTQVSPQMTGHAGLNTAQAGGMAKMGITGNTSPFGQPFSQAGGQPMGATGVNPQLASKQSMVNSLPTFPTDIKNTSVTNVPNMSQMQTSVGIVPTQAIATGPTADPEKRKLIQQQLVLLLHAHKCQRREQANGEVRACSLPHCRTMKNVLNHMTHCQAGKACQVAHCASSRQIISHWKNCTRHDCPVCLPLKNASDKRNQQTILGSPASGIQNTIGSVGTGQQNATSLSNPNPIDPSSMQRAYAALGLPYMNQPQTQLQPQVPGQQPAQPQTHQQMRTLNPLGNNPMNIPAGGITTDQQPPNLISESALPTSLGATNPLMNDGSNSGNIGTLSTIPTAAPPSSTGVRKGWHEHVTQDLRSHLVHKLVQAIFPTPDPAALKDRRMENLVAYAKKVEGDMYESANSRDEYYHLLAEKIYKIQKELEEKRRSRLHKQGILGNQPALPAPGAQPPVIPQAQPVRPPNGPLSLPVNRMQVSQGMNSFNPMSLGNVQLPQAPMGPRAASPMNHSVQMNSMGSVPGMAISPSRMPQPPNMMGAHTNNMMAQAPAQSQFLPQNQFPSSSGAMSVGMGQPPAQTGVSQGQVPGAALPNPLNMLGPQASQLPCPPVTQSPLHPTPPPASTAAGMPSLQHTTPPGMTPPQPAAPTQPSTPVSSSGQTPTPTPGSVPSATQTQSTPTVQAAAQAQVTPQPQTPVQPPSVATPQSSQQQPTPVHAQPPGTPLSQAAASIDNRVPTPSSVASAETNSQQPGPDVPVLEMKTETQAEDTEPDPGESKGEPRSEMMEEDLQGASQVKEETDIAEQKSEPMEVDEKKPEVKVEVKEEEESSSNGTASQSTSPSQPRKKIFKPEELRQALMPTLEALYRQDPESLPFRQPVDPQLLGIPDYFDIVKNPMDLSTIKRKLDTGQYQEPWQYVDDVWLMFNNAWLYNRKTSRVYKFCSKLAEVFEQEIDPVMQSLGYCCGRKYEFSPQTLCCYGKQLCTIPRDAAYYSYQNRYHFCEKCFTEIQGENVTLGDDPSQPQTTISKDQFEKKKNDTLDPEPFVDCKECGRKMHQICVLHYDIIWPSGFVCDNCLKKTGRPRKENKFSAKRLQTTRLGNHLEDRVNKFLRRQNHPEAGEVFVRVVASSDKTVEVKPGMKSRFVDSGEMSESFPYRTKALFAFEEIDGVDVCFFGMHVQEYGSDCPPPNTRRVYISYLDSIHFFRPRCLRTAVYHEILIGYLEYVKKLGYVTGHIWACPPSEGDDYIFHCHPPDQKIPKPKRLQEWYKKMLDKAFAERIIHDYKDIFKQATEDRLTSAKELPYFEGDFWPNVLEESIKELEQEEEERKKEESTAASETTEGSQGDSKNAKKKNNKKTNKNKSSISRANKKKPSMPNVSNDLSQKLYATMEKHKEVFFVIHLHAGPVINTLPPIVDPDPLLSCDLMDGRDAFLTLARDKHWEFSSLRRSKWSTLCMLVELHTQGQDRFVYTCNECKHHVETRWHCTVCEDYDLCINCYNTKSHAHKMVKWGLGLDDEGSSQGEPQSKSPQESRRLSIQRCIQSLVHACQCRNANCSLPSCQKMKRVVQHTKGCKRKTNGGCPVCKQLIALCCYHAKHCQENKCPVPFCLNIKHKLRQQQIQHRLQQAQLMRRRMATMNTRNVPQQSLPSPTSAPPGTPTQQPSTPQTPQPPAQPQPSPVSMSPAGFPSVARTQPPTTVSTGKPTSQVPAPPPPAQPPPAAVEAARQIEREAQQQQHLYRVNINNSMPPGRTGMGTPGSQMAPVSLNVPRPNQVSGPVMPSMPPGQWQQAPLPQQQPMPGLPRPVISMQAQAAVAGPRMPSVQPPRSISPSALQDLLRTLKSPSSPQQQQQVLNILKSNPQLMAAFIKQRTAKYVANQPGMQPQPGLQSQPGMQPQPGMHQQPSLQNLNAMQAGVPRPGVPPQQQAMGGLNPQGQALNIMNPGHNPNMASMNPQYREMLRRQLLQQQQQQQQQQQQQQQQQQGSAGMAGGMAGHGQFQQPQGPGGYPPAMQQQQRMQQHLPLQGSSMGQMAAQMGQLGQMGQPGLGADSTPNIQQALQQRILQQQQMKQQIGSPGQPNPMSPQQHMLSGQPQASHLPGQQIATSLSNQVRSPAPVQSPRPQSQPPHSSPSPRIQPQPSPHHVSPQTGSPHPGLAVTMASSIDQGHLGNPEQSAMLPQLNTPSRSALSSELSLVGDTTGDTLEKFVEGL
In assay [4] the target is T1, Histone acetyltransferase KAT2B. Briefly: Inhibition of human recombinant N-terminal His-tagged PCAF histone acetyltransferase catalytic domain expressed in Escherichia coli BL21 D3 using biotinylated histone H3 as substrate after 10 mins by TR-FRET analysis relative to control.
Target sequence in this assay (Q92831 whole entry, the tested form may be a part): as the sequence (Q92831 whole entry, looked up, the tested form may be a part) above
Assay [5] concerns the target T4, Histone acetyltransferase p300 (Homo sapiens, UniProt Q09472). Briefly: Inhibition of KAT3B (965 to 1810) (unknown origin) using biotinylated histone H3 as substrate at 100 uM after 10 mins by TR-FRET analysis relative to control.
Assay [6] deals with T4, Histone acetyltransferase p300. The assay is described as follows: Inhibition of KAT3B (965 to 1810) (unknown origin) using biotinylated histone H3 as substrate after 10 mins by TR-FRET analysis relative to control.
Assay [7] deals with T2, Histone acetyltransferase KAT2A. Briefly: Inhibition of KAT2A (362 to 837) (unknown origin) using biotinylated histone H3 as substrate at 50 uM after 10 mins by TR-FRET analysis relative to control.
Target sequence in this assay (Q92830 2-837 limits assumed): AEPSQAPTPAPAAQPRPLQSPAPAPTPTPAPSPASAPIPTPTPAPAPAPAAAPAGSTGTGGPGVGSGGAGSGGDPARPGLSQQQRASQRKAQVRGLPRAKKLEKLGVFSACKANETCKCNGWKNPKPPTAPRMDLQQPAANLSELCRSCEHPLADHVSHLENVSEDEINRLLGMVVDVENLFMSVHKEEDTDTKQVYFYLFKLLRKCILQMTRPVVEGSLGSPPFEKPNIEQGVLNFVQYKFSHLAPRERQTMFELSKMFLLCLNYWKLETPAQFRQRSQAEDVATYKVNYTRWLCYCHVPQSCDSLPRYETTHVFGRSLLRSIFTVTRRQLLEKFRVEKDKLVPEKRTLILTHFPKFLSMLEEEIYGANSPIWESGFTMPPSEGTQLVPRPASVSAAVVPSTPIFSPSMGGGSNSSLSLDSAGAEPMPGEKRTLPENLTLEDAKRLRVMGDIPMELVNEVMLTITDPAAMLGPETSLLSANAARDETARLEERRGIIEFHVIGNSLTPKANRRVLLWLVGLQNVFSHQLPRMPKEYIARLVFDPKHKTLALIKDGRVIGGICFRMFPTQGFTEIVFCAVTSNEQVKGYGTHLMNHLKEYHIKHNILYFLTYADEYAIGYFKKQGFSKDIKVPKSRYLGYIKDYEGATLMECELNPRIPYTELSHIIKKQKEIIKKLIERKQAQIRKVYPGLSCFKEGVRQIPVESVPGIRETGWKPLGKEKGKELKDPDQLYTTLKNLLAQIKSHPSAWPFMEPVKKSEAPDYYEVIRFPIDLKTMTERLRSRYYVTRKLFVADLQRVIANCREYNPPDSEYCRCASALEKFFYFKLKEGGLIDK
Assay [8] concerns the target T4, Histone acetyltransferase p300. Briefly: Inhibition of KAT3B (965 to 1810) (unknown origin) using biotinylated histone H3 as substrate at 50 uM after 10 mins by TR-FRET analysis relative to control.
In assay [9] the target is T3, CREB-binding protein. The assay is described as follows: Inhibition of KAT3A (1319 to 1710) (unknown origin) using biotinylated histone H3 as substrate at 50 uM after 10 mins by TR-FRET analysis relative to control.

A word on the inhibition: it is how much of the control response was suppressed. For `O=C(O)CCCCCN1C(=O)/C(=C2/C(=O)Nc3ccccc32)SC1=S`, the inhibition in assay [1] was found to be 9%.

Take `Cc1ccc(CN2C(=O)/C(=C3\SC(=S)N(CCCCC(=O)O)C3=O)c3ccccc32)cc1`: in assay [1], the inhibition was 8%.

What is called IC50 is the point on the concentration scale where inhibition reaches its midpoint. Consider `O=c1c2cccnc2sn1Cc1ccc(Cl)cc1`, for which the IC50 amounted to 89.9 µM in assay [2] and 1.95 µM in assay [3].

For `CCOc1ccccc1/C=C1\SC(=S)N(CCCCCC(=O)OC)C1=O`, the inhibition in assay [1] worked out at 9%.

In the case of `Cc1ccc(COc2cccc(/C=C3\SC(=S)N(CCCC(=O)O)C3=O)c2)cc1`, the inhibition in assay [1] is 5%.

Regarding `Cc1ccc(CN2C(=O)/C(=C3\SC(=S)N(C[C@H]4CC[C@H](C(=O)O)CC4)C3=O)c3ccccc32)cc1`, the results for the IC50 in [4], in [2] and in assay [3] were 41.8 µM, 46.4 µM and 38.5 µM, respectively. Besides, the inhibition in assay [5] was 23%.

As for `CN1C(=O)/C(=C2\SC(=S)N(CCCCCC(=O)O)C2=O)c2ccccc21`, the inhibition in assay [1] was 5%.

In the case of `COC(=O)CCN1C(=O)/C(=C/c2cc(OC)ccc2OC)SC1=S`, in assay [1], the inhibition was 8%.

For the compound `O=C1Nc2ccccc2/C1=C1/SC(=S)N(CCS(=O)(=O)O)C1=O`, the inhibition in assay [1] was less than 5%.

For the compound `O=C(O)CCCCCN1C(=O)/C(=C2/C(=O)N(Cc3ccccc3)c3ccccc32)SC1=S`, the inhibition in [1] stood at 13%.

Take `Cc1cccc(NC(=O)CN2C(=O)/C(=C3\SC(=S)N(CCS(=O)(=O)O)C3=O)c3ccccc32)c1`: in assay [1], the inhibition turned out to be 6%.

As to `CCN1C(=O)/C(=C2\SC(=S)N(CCCCCC(=O)O)C2=O)c2ccccc21`, the inhibition in [1] was determined as 6%.

On to `O=C(O)c1ccc(N2C(=O)/C(=C3/C(=O)N(Cc4ccccc4)c4ccccc43)SC2=S)cc1`, for which, in assay [1], the inhibition stood at 14%.

On to `Cc1ccc(CN2C(=O)/C(=C3\SC(=S)N(CCCCCC(=O)O)C3=O)c3ccccc32)cc1`, for which the IC50 in assay [4] amounted to 67.2 µM; in assay [2] it was 47 µM; in assay [3] it was 41 µM; in [6], 81 µM.

Consider `CCCCCCOc1ccc(/C=C2\SC(=S)N(CCCC(=O)O)C2=O)cc1`, for which, in [1], the inhibition is 8%.

On to `O=C(O)CCCCCN1C(=O)/C(=C2/C(=O)N(Cc3ccc(F)cc3)c3ccccc32)SC1=S`, for which the IC50 in assay [4] was 97.7 µM; in assay [2] it was 210 µM; in assay [3], 116 µM; in [6], 244 µM.

As for `O=C(O)CCCCCN1C(=O)/C(=C/c2ccc(-c3ccccc3)cc2)SC1=S`, the inhibition in assay [1] is less than 5%.

For `CN(C)c1ccc(/C=C2\SC(=S)N(CCCCCC(=O)O)C2=O)cc1`, the inhibition in [1] was less than 5%.

Take `COC(=O)CCCCCN1C(=O)/C(=C/c2cc(OC)ccc2OC)SC1=S`: the inhibition in assay [1] worked out at 21%.

For the compound `O=C(O)CCCCCN1C(=O)/C(=C2/C(=O)N(Cc3ccc([N+](=O)[O-])cc3)c3ccccc32)SC1=S`, the IC50 in [4] was found to be 78.2 µM; in assay [2], 69.6 µM; in assay [3] it was 28.4 µM; in [6], 152 µM.

For `COc1ccc(/C=C2\SC(=S)N(CCCCCC(=O)O)C2=O)cc1Br`, the inhibition in assay [1] came out at 8%.

In the case of `COc1ccc(CN2C(=O)/C(=C3\SC(=S)N(CCCCCC(=O)O)C3=O)c3ccccc32)cc1`, the IC50 in assay [4] is 28.8 µM; in assay [2], 54.7 µM; in assay [3], 40.9 µM; in [6], 61.9 µM.

As for `COC(=O)CCCCCN1C(=O)/C(=C/c2ccc(C)cc2)SC1=S`, the inhibition in assay [1] worked out at 24%.

Turning to `CC1=C/C(=N/Nc2ccnc3cc(Cl)ccc23)CC1`, the inhibition in [1] worked out at 12%.

Regarding `Cc1ccc(CN2C(=O)/C(=C3\SC(=S)N(CCS(=O)(=O)O)C3=O)c3ccccc32)cc1`, the inhibition in [1] was less than 5%.

For `Cc1ccc(CN2C(=O)/C(=C3\SC(=S)N(CCCCCCCC(=O)O)C3=O)c3ccccc32)cc1`, the IC50 in assay [4] is 63.7 µM; in assay [2], 63.5 µM; in [3], 35.9 µM; in assay [6] it was 95.3 µM.

Turning to `COC(=O)CCCCCN1C(=O)/C(=C2/C(=O)N(Cc3ccc(C)cc3)c3ccccc32)SC1=S`, the inhibition was 8% in assay [1], 6% in assay [7], less than 5% in [8] and 25% in [9].
